Read-outs that look alike come from different tables or passages of the source.
Tested on: RSV A2 strain
Experiment: In vitro CPE (CytoPathic Effect) inhibition effect evaluation test, RSV type A
Assay type: cell-based
Details: inhibitory effect against RSV type A (RSV A2 strain), HEp-2 cells, CPE inhibition, read-out: EC50
Summary of the method: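 EC50 is the concentration giving 50% inhibition of virus-induced cytopathic effect, fitted by nonlinear regression from CellTiter-Glo 2.0 viability. Compounds in 3-fold series were co-incubated at 37 °C with HEp-2 cells and RSV: A2 strain for 4 days, B (Wash/18537) for 5 days; uninfected wells served as control.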

[1] = human respiratory syncytial virus

Compound	EC50 [1] [µM]	EC50 [µM]
COc1cccc(/C=C/c2ccc3c(c2)CCN3c2ncc(C(=O)NC3(C(=O)O)CCCCC3)c(C(F)(F)F)n2)c1 [Compound I-24]	0.01 to 0.1	
COc1cccc(COc2ccc3c(n2)C2(CCOCC2)CN3c2ncc(C(=O)NC3(C(=O)O)C4CC5CC(C4)CC3C5)c(C(F)(F)F)n2)c1 (stereo not drawn) [Compound I-104]		< 0.01
COc1cccnc1N1CCC(Oc2ccc3c(c2)CCN3c2ncc(C(=O)NC3(C(=O)O)CCCCC3)c(C(F)(F)F)n2)CC1 [Compound I-77]	< 0.01	
Cn1cc(-c2ncc(C(=O)NC3(C(=O)O)C4CC5CC(C4)CC3C5)c(C(F)(F)F)n2)c2ccc(OCCC3CCOCC3)cc21 (stereo not drawn) [Compound I-116]	< 0.01	
CCc1nc(COc2ccc3c(c2)CCN3c2ncc(C(=O)NC3(C(=O)O)CCCCC3)c(C(F)(F)F)n2)cs1 [Compound I-59]	0.01 to 0.1	
O=C(NC1(C(=O)O)C2CC3CC(C2)CC1C3)c1cnc(-n2c3ccccc3c3cc(OCCC4CCOCC4)ccc32)nc1C(F)(F)F (stereo not drawn) [Compound I-141]	< 0.01	
O=C(NC1(C(=O)O)C2CC3CC(C2)CC1C3)c1cnc(N2CC3(CCCC3)c3cc(OC4CCN(c5ncccn5)CC4)ccc32)nc1C(F)(F)F (stereo not drawn) [Compound I-244]	< 0.01	
O=C(NC1(C(=O)O)CCCCC1)c1cnc(N2CCc3cc(OC4CCN(c5ccccn5)CC4)ccc32)nc1C(F)(F)F [Compound I-41]	< 0.01	
COC1CCC(n2cc(-c3ncc(C(=O)NC4(C(=O)O)C5CC6CC(C5)CC4C6)c(C(F)(F)F)n3)c3ccc(OC4CCN(c5ncc(F)cn5)CC4)cc32)CC1 (single isomer, unassigned) [Compound I-424]		< 0.01
O=C(NC1(C(=O)O)CC2CCC1C2)c1cnc(N2CCc3cc(OCCC4CCOCC4)ccc32)nc1C(F)(F)F (stereo not drawn) [Compound I-12]	< 0.01	
N#C[C@]12C[C@@H]3C[C@H](C1)[C@@](NC(=O)c1cnc(N4CC5(CCOCC5)c5cc(OC6CCN(c7ncccn7)CC6)ccc54)nc1C(F)(F)F)(C(=O)O)[C@@H](C3)C2 [Compound I-219]	< 0.01	
O=C(NC1(C(=O)O)CCNCC1)c1cnc(N2CC3(CCOCC3)c3cc(OC4CCN(c5ncccn5)CC4)ccc32)nc1C(F)(F)F [Compound I-144]	0.1 to 5	
O=C(NC1(C(=O)O)C2CC3CC(C2)CC1C3)c1ccc(-c2cn(C3CCC(F)(F)CC3)c3cc(OC4CCCN(C5COC5)C4)ccc23)nc1C(F)(F)F (racemic) [Compound I-235]	< 0.01	

Further lines, results first:

EC50 [1] [µM]	EC50 [µM]	Compound
< 0.01		CC1(C)CCCC(NC(=O)c2cnc(-c3cn(C4CCC(F)(F)CC4)c4cc(OC5CCN(c6ncccn6)CC5)ccc34)nc2C(F)(F)F)(C(=O)O)C1 (racemic) [Compound I-262]
< 0.01		O=C(NC1(C(=O)O)C2CC3CC(C2)CC1C3)c1ccc(-c2cn(CC3CC(F)(F)C3)c3cc(OC4CCN(c5ncccn5)CC4)ccc23)nc1C(F)(F)F (stereo not drawn) [Compound I-264]
	< 0.01	CC(=O)N1CCC2(C1)CN(c1ncc(C(=O)NC3(C(=O)O)C4CC5CC(C4)CC3C5)c(C(F)(F)F)n1)c1ccc(OC3CCN(c4ncccn4)CC3)cc12 (racemic) [Compound I-362]
< 0.01		O=C(NC1(C(=O)O)C2CC3CC(C2)CC1C3)c1cnc(-c2cn(C3CCC(F)(F)CC3)c3cc(OCc4ccc5c(c4)OCC5)ccc23)nc1C(F)(F)F (stereo not drawn) [Compound I-278]
	< 0.01	O=C(NC1(C(=O)O)C2CC3CC(C2)CC1C3)c1cnc(N2CC3(CCN(c4ncc(F)cn4)C3)c3cc(OC4CCN(c5ncccn5)CC4)ccc32)nc1C(F)(F)F (racemic) [Compound I-361]
	< 0.01	Cn1cc(-n2cc(-c3ccc(C(=O)NC4(C(=O)O)C5CC6CC(C5)CC4C6)c(C(F)(F)F)n3)c3ccc(OC4CCN(c5ncccn5)CC4)cc32)cn1 (stereo not drawn) [Compound I-328]
0.01 to 0.1		O=C(NC1(C(=O)O)C2CC3CC(C2)CC1C3)c1cnc(N2CC3(CCCCC3)c3cc(O[C@H]4CC[C@@H](ON=C5CC(F)(F)C5)CC4)ccc32)nc1C(F)(F)F (stereo partly drawn) [Compound I-461]
< 0.01		O=C(NC1(C(=O)O)C2CC3CC(C2)CC1C3)c1cnc(-c2cn(C3CCC(F)(F)CC3)c3cc(OC4CN(c5ncc(F)cn5)C4)ccc23)nc1C(F)(F)F (stereo not drawn) [Compound I-387]

From patent publication US12528790B2, “Amide derivative having antiviral activity” (Shionogi & Co., Ltd., priority 2020, dated 2026)
